Key:
[1] = target: T1, AAK1 (full-length human protein) (Homo sapiens, UniProt Q2M2I8); experiment: P81 filter plate assay; format: biochemical; conditions: pyrazolo[1,5-a]pyrimidine-based inhibitors
T1 construct: NP_055726.2
Experimental: Compounds were serially diluted into a Labcyte LDV plate (Labcyte, cat# LP-0200) using a Mutiprobe (PerkinElmer) and Biomek FX (Beckman Coulter) so that the highest compound concentration was at 96 μM. Compounds were then pinged (75 nL per well) into a Greiner 384-well reaction plate (Greiner, #781076) using an ECHO 550 Liquid Handler (Labcyte). A total of 12 μl reaction buffer (IMAP buffer containing Tween and DTT, from Molecular Devices) was then added to each well of columns 1 and 13 for the negative controls and 12 μl of 2×AAK1 (0.2 nM full-length human protein, NCBI accession no. NP_055726.2) was added to the remaining wells. Enzyme was then pre-incubated with compound for 10 minutes at RT. Reactions were initiated upon Minitrak (PerkinElmer) addition of 12 μl substrate mix containing 2× Mu2 (0.2 μM, full length human protein), 2× cold ATP (2 μM), and 1.3 μCi of hot ^33P-ATP. Reactions proceeded for one hour at RT. Meanwhile, Millipore 384-well P81 filter plates (Millipore, catalog # MZPHN0W10) were placed on a plate washer (Zoom Z W, from Titertek) and pre-wet with 50 μl 1% phosphoric acid. Kinase reactions were then stopped upon addition of 24 μl of 2% phosphoric acid to each well and the Minitrak was then used to transfer 40 μl from each well into the pre-wet Millipore 384-well P81 filter plates. Reaction mixtures were incubated for 10 minutes at RT in the P81 plates, followed by washing five times with 100 μl/well of 1% phosphoric acid using the Zoom filter washer. The bottom of each filter plate was sealed followed by addition of 20 μl Microscint 40 to each well, sealing the top of the plates with Flashplate cover, and then waiting one hour until reading on the TopCount (PerkinElmer).

[2] = target: T2, AAK1 (full length human) in transfected HEK293F cells (Homo sapiens, UniProt Q2M2I8); experiment: HEK281 cell-based assay (phospho-mu2 Western blot); conditions: HEK281 cell-based assay; pyrazolo[1,5-a]pyrimidine-based inhibitors; read-out: CBA IC50
T2 construct: expressed in transfected cells; host or cells: HEK293F
T2 sequence (Q2M2I8 1-863 isoform Q2M2I8-2): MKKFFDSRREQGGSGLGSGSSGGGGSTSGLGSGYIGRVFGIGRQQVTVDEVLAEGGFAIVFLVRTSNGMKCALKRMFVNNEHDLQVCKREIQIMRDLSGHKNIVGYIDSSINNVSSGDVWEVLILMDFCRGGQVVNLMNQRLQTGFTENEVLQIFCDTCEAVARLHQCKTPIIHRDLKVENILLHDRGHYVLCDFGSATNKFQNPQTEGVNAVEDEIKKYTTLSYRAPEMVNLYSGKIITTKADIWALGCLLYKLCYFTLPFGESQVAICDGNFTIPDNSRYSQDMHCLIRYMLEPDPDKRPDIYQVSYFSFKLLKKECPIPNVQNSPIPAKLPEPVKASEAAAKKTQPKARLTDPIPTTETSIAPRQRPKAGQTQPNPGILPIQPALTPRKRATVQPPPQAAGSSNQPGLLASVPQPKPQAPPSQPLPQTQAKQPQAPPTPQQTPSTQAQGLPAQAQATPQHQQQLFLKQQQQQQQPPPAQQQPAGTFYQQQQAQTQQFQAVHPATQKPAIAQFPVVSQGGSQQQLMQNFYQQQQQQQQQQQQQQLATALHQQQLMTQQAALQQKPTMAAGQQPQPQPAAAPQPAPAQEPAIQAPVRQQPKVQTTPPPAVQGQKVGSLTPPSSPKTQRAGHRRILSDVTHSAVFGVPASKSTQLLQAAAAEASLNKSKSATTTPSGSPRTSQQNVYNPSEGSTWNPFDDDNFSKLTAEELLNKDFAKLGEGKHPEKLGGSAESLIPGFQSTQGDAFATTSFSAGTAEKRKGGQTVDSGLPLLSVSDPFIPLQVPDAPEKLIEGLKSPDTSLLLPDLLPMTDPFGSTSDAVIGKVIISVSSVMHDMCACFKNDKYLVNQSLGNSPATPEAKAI
Experimental: HEK293F cells were cultured in media containing DMEM (Gibco, cat. #11965), 10% FBS (SAFC Biosciences, cat. #12103C), 1×GPS (glutamine, penicillin and streptomycin). On day one, cells were plated on a 10 cm dish so that they are ˜80% confluent at time of transfection. Roughly 12 million cells were in a 10 cm dish at time of transfection. On day two, each dish was transfected with 48 ug DNA and 144 ul Lipofectamine 2000 (Invitrogen, cat.#11668-019). The DNA was comprised of a mixture (per 10 cm dish) containing 3 ug AAK1/HA/pIRES (full length human, NCBI accession no. NP_055726.2), 45 μg Flag/AP2MI/pcDNA (full length human), and 1.5 ml OPTI-MEM. The Lipofectamine 2000 is made up of a mixture (per 10 cm dish) containing 144 μl Lipofectamine 2000 and 1.5 ml OPTI-MEM. Each mixture was transferred to individual 15 ml tubes and incubated at RT for 5 minutes, and then the two mixes were combined and incubated at RT for 20 minutes. Growth media was then aspirated from each 10 cm plate and replaced with 10 ml of DMEM+10% FBS (no GPS). Finally, 3 ml DNA/Lipofectamine mix was added to each 10 cm dish and mix gently followed by incubate of plate overnight at 37° C. and 5% CO2.
On day three, compounds were diluted in 100% DMSO at 1000× final concentration, followed by 3-fold serial dilutions for a total of 5 concentrations tested. Four compounds were tested per 10 cm dish. One ul of each compound dilution was then pipetted into a deep-well, 96-well plate, followed by addition of 500 μl DMEM+0.5% FBS into each well for a 2× final concentration of each compound. Cells were resuspended in a 10 cm dish by simple pipetting (HEK293 cells come off the plate that easy at this point) and then transferred to a 50 ml conical tube and pelleted by centrifugation at 1000 rpm for 5 min. Cell pellets were then resuspended in 2.75 ml DMEM+0.5% FBS per 10 cm dish and 100 μl of cell suspension transferred into each well of 96-well TC plate. Finally, 100 μl of 2× compound diluted in DMEM+0.5% FBS was then added into wells containing cell suspension for a 1× final concentration. Plates were then incubated at 37° C. and 5% CO2 for 3 hours followed by transferring of cell suspensions from each well into 12-tube PCR strips. The PCR strips were spun in a tip rack at 1000 rpm for 5 minutes to pellet cells and media was then removed by pipetting without disturbing the cell pellet.
To prepare for Western Blot analysis, cell pellets were resuspend in 40 ul 1×LDS-PAGE sample buffer (Invitrogen, cat.# NP0008)+2× Halt phophatase and protease inhibitor cocktail (Thermo Scientific, cat.#1861284), followed by sonicating each with microtip sonicator set at 5 for 8-10 seconds. Five ul of 10× NuPage Sample Reducing Agent (with […]) was to each sample followed by heat denaturing at 70 C. for 10 min on PCR machine. A total of 10 μl per sample was loaded into each lane of a 4-20% Tris-Glycine Criterion 26-well gel (Biorad, cat.#345-0034) for the phospho-mu2 blot and 10 μl per lane in a 4-12% Bis-Tris (+MES buffer) NuPAGE 26-well gel (Invitrogen, cat.# WG1403BX10) for the mu2 blot. For controls, 2 ng of phospho-mu2 or 20 ng mu2/Flag proteins were loaded in the last well of each gel. After SDS-PAGE, samples on each gel were transferred to PVDF membrane using an iBlot and membranes were blocked for one hour in TBST+5% milk, followed by wash 3× for 5-10 min with TBST. Criterion gels were probed with rabbit anti-phospho-mu2 (1:5000; a rabbit polyclonal antibody produced by New England Peptide and affinity purified at Lexicon) in TBST+5% BSA, whereas, NuPAGE gels were probed with mouse anti-Flag (1:500; Sigma, cat.# F1804) in TBST+5% milk, and these primary antibodies were incubated overnight at 4° C. on a rocker.

[3] = tested on: formalin-induced paw flinching; experiment: formalin paw test; format: in vivo; conditions: mice
Experimental: See example 5.4.1, above. The same test was used to confirm that the administration of an AAK1 inhibitor can also affect pain response.
Mice were tested for nociception with Automatic Nociception Analyzers (purchased from the Ozaki lab at University of California, San Diego). A metal band was placed around the left hind paw of each mouse with superglue 30 minutes prior to testing. After the 30-minute acclimation period, 20 μl of 5% formalin was subcutaneously injected in the dorsal surface of the left hind paw. Mice were individually housed in cylindrical chambers for 45 minutes. Fresh 5% formalin solution was prepared by diluting formaldehyde (Formalde-fresh 20%, Fisher Scientific, Fair Lawn, N.J.) with distilled water. Investigatory compounds were administered 30 minutes prior to formalin injection.
A computer software recorded flinches per minute, total flinches for Phase I (acute phase=first 8 minutes), and total flinches for Phase II (tonic phase between 20-40 minutes) through an electromagnetic field. See Yaksh T L, Ozaki G, McCumber D, Rathbun M, Svensson C, Malkmus S, Yaksh M C. An automated flinch detecting system for use in the formalin nociceptive bioassay. J Appl Physiol., 2001; 90:2386-402.
Various compounds of the invention were tested at different doses. Gabapentin and pregabalin were used as positive controls. Results are shown below in Table 2, wherein “*” means an effect equal to or greater than 50 percent of that of gabapentin at 200 mpk, “**” means an effect equal to or greater than 100 percent of that of gabapentin at 200 mpk, “sc” means subcutaneous administration, “ip” means in intraperitoneal administration, and “po” means oral administration.

T1 sequence (Q2M2I8 1-863 isoform Q2M2I8-2): as above

IC50 [1]	IC50 [2]	SMILES	also measured
≤ 0.01 µM	≤ 0.1 µM	COc1ncccc1-c1cnn2ccc(N3CCN(C(=O)NC(C)(C)C)CC3)nc12	
≤ 0.01 µM	≤ 0.1 µM	COc1ncccc1-c1cnn2ccc(N3CCN(C(=O)N(C)C(C)(C)C)CC3)nc12	
≤ 0.01 µM	≤ 0.1 µM	COc1ncccc1-c1cnn2ccc(N3CCN(C(=O)N(C)C(C)C)CC3)nc12	
≤ 0.01 µM	≤ 0.01 µM	COc1ncccc1-c1cnn2ccc(N3CCN(C(=O)NC(C)C)CC3)nc12	
≤ 0.01 µM	≤ 0.1 µM	COc1ncccc1-c1cnn2ccc(N3CCN(C(=O)N4CCCC4)CC3)nc12	
≤ 0.01 µM	≤ 0.01 µM	COc1ccccc1-c1cnn2ccc(NC[C@@H]3CCCN3C(=O)CC(C)(C)C)nc12	
≤ 0.01 µM	≤ 0.1 µM	CCCC(=O)N1CCC[C@H]1CNc1ccn2ncc(-c3ccccc3OC)c2n1	
≤ 0.01 µM	≤ 0.01 µM	CC(C)(C)NC(=O)N1CCC[C@H]1CNc1ccn2ncc(Br)c2n1	
≤ 0.01 µM	≤ 0.1 µM	COc1ccccc1-c1cnn2ccc(NC[C@@H]3CCCN3C(=O)CC(F)(F)F)nc12	
≤ 0.01 µM	≤ 0.1 µM	O=C(CC(F)(F)F)N1CCC[C@H]1CNc1ccn2ncc(-c3ccncc3)c2n1	
≤ 0.01 µM	≤ 0.01 µM	COc1ncccc1-c1cnn2ccc(N3CC[C@H](N(C)C(=O)CC(F)(F)F)C3)nc12	
≤ 0.01 µM	≤ 0.01 µM	CN(C(=O)CC(F)(F)F)[C@H]1CCN(c2ccn3ncc(-c4ccccn4)c3n2)C1	
≤ 0.01 µM	≤ 0.1 µM	CC(C)(C)CCN1C(=O)CC[C@H]1CNc1ccn2ncc(Br)c2n1	
≤ 0.01 µM	≤ 1 µM	CCCC(=O)N(C)[C@H]1CCN(c2ccn3ncc(-c4ccccc4OC)c3n2)C1	
≤ 0.01 µM	≤ 1 µM	CCCC(=O)N(C)[C@H]1CCN(c2ccn3ncc(-c4cccnc4OC)c3n2)C1	
≤ 0.01 µM	≤ 0.01 µM	COc1ccccc1-c1cnn2ccc(NC[C@@H]3CCCN3C(=O)OC(C)C)nc12	
≤ 0.01 µM	≤ 0.1 µM	COC(=O)N1CCC[C@H]1CNc1ccn2ncc(-c3ccccc3OC)c2n1	
≤ 0.01 µM	≤ 0.1 µM	COCc1ccccc1-c1cnn2ccc(NC[C@@H]3CCCN3C(=O)OC(C)(C)C)nc12	
≤ 0.01 µM	≤ 0.1 µM	CC(C)(C)OC(=O)N1CCC[C@H]1CNc1ccn2ncc(-c3ccccc3O)c2n1	
≤ 0.01 µM	≤ 0.01 µM	CC(C)Oc1ccccc1-c1cnn2ccc(NC[C@@H]3CCCN3C(=O)OC(C)(C)C)nc12	
≤ 0.01 µM	≤ 0.01 µM	COc1ccc(-c2cnn3ccc(NC[C@@H]4CCCN4C(=O)OC(C)(C)C)nc23)cc1	
≤ 0.01 µM	≤ 0.1 µM	COc1ccccc1-c1cnn2ccc(N3CC[C@H](N(C)C(=O)OC(C)(C)C)C3)nc12	
≤ 0.01 µM	≤ 0.1 µM	CC(C)OC(=O)N1CCN(c2ccn3ncc(-c4ccncc4)c3n2)CC1	
≤ 0.1 µM	≤ 0.1 µM	COC(=O)N1CCN(c2ccn3ncc(-c4cccnc4OC)c3n2)CC1	
		CCCCNc1ccc2ncc(-c3ccc(-c4nnn[nH]4)cc3)n2n1 [3-(4-(1H-tetrazol-5-yl)phenyl)-N-butylimidazo[1,2-b]pyridazin-6-amine]	Effect ([3]; 60 mpk ip): ** (an effect equal to or greater than 100% of that of gabapentin at 200 mpk)
		NCc1ccc(-c2cnc3ccc(NCCOC4CCCC4)nn23)cc1 [3-(4-(aminomethyl)phenyl)-N-(2-(cyclopentyloxy)ethyl)imidazo[1,2-b]pyridazin-6-amine]	Effect ([3]; 60 mpk sc): ** (an effect equal to or greater than 100% of that of gabapentin at 200 mpk); Effect ([3]; 100 mpk sc): ** (an effect equal to or greater than 100% of that of gabapentin at 200 mpk)
		CC(C)(C)OCCNc1ccc2ncc(-c3ccc(CN)cc3)n2n1 [3-(4-(aminomethyl)phenyl)-N-(2-(tert-butoxy)ethyl)imidazo[1,2-b]pyridazin-6-amine]	Effect ([3]; 60 mpk sc): ** (an effect equal to or greater than 100% of that of gabapentin at 200 mpk)
		CC(C)(C)OCCCNc1ccc2ncc(-c3ccc(CN)cc3)n2n1 [3-(4-(aminomethyl)phenyl)-N-(3-(tert-butoxy)propyl)imidazo[1,2-b]pyridazin-6-amine]	Effect ([3]; 60 mpk sc): ** (an effect equal to or greater than 100% of that of gabapentin at 200 mpk)
		NCc1ccc(-c2cnc3ccc(NCCCc4ccccc4)nn23)cc1 [3-(4-(aminomethyl)phenyl)-N-(3-phenylpropyl)imidazo[1,2-b]pyridazin-6-amine]	Effect ([3]; 30 mpk ip): ** (an effect equal to or greater than 100% of that of gabapentin at 200 mpk)
		CC(C)C[C@@H](N)COc1ccc2c(c1)OCc1cnccc1-2 [(R)-1-(5H-chromeno[3,4-c]pyridin-8-yloxy)-4-methylpentan-2-amine]	Effect ([3]; 10 mpk sc, given as a number, relative to gabapentin at 200 mpk): 45%; Effect ([3]; 30 mpk sc): * (an effect equal to or greater than 50% of that of gabapentin at 200 mpk)
